Measurements from US7501430B2 (ArQule, Inc., priority 2006, dated 2009).

target: T1, mutant B-RAF (Homo sapiens, UniProt P15056, V600E); test: RAF biochemical assay (MEK-1 phosphorylation, anti-phospho MEK1/2 detection); details: not given
T1 construct: purchased Upstate (Charlottesville, Va.)
Outline: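 Detection is by ELISA: after a 30 min room-temperature reaction, plate-captured GST-MEK-1 is probed with anti-phospho MEK1/2, then an AP-tagged secondary antibody with fluorescent Attophos read-out.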

T1 sequence (P15056 whole entry V600E): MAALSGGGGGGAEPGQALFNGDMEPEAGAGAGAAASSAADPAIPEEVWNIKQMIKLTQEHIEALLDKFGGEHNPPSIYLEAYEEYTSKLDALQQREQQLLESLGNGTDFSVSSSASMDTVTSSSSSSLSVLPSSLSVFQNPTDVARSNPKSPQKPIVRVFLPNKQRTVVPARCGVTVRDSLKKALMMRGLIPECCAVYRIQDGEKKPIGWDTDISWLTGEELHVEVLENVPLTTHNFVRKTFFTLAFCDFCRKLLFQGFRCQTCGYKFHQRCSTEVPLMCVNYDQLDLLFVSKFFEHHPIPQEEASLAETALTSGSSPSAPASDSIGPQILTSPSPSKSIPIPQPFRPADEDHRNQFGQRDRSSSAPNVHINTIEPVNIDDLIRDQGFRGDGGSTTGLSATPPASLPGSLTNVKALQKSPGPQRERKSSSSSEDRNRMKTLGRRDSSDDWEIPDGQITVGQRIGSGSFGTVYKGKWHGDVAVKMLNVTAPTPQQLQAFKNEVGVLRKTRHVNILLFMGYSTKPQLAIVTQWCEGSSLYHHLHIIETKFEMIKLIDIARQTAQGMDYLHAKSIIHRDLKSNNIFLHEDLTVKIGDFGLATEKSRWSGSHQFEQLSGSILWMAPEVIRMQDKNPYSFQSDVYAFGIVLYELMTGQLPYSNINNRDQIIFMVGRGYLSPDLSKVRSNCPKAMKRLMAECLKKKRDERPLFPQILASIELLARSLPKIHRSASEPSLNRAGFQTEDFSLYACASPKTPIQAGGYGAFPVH

Compound	IC50 [µM]
O=S(=O)(c1ccc(C(F)(F)F)cc1)N1CCC[C@@H](Nc2nccc(-c3c(-c4ccc(F)cc4)nc4occn34)n2)C1 [Example 58, 4-[6-(4-fluorophenyl)imi-dazo[2,1-b][1,3]oxazol-5-yl]-N-((3R)-1-{[4-(trifluoro-methyl)phenyl]sulfonyl}piperidin-3-yl)pyrimidin-2-amine]	0.403
COc1ccc(C(=O)N2CCC[C@@H](Nc3nccc(-c4c(-c5ccc(F)cc5)nc5occn45)n3)C2)cc1 [Example 27, 4-[6-(4-fluorophenyl)imi-dazo[2,1-b][1,3]oxazol-5-yl]-N-[(3R)-1-(4-methoxy-benzoyl)piperidin-3-yl]pyri-midin-2-amine]	4.89

same assay, conditions: @ 10 uM; read-out: Mutant B-RAF % inhibition

Compound	inhibition at 10 µM [%]
Cc1noc(C)c1NC(=O)N1CCC(Nc2nccc(-c3c(-c4ccc(F)cc4)nc4occn34)n2)CC1 [Example 178, N-(3,5-dimethylisoxazol-4-yl)-4-({4-[6-(4-fluorophenyl)imidazo[2,1-b][1,3]oxazol-5-yl]pyrimidin-2-yl}amino)piperidine-1-carboxamide]	19
O=C(Nc1ccc(C(F)(F)F)cc1)N1CCC(Nc2nccc(-c3c(-c4ccc(F)cc4)nc4occn34)n2)CC1 [Example 182, 4-({4-[6-(4-fluorophenyl)imidazo[2,1-b][1,3]oxazol-5-yl]pyrimidin-2-yl}amino)-N-[4-(trifluoromethyl)phenyl]piperidine-1-carboxamide]	45
O=S(=O)(c1ccc(F)cc1)N1CCC(Nc2nccc(-c3c(-c4ccc(F)c(F)c4)nc4sccn34)n2)CC1 [Example 217, 4-[6-(3,4-difluorophenyl)imidazo[2,1-b][1,3]thiazol-5-yl]-N-{1-[(4-fluorophenyl)sulfonyl]piperidin-4-yl}pyrimidin-2-amine]	48
O=C(NCc1ccc(F)cc1)N1CCC[C@@H](Nc2nccc(-c3c(-c4ccc(F)cc4)nc4occn34)n2)C1 [Example 76, (3R)-N-(4-fluorobenzyl)-3-({4-[6-(4-fluorophenyl)imidazo[2,1-b][1,3]oxazol-5-yl]pyrimidin-2-yl}amino)piperidine-1-carboxamide]	36
O=[N+]([O-])c1cccc(-c2nc3sccn3c2-c2ccnc(N[C@@H]3CCCN(S(=O)(=O)c4ccc(Cl)cc4)C3)n2)c1 [Example 120, N-{(3R)-1-[(4-chlorophenyl)sulfonyl]piperidin-3-yl}-4-[6-(3-nitrophenyl)imidazo[2,1-b][1,3]thiazol-5-yl]pyrimidin-2-amine]	55
O=C(Cc1ccc(F)cc1)N1CCC(Nc2nccc(-c3c(-c4ccc(F)cc4)nc4occn34)n2)CC1 [Example 179, N-{1-[(4-fluorophenyl)acetyl]piperidin-4-yl}-4-[6-(4-fluorophenyl)imidazo[2,1-b][1,3]oxazol-5-yl]pyrimidin-2-amine]	29
Nc1c(Cl)c(Cl)nc(C(=O)N2CCC(Nc3nccc(-c4c(-c5ccc(F)cc5)nc5occn45)n3)CC2)c1Cl [Example 209, N-{1-[(4-amino-3,5,6-trichloropyridin-2-yl)carbonyl]piperidin-4-yl}-4-[6-(4-fluorophenyl)imidazo[2,1-b][1,3]oxazol-5-yl]pyrimidin-2-amine]	49
COCC(=O)N1CCC(Nc2nccc(-c3c(-c4ccc(F)cc4)nc4occn34)n2)CC1 [Example 163, 4-[6-(4-fluorophenyl)imidazo[2,1-b][1,3]oxazol-5-yl]-N-[1-(methoxyacetyl)piperidin-4-yl]pyrimidin-2-amine]	53
COc1ccc(OC)c(-c2nc3sccn3c2-c2ccnc(N[C@@H]3CCCN(S(=O)(=O)c4ccc(Cl)cc4)C3)n2)c1 [Example 144, N-{(3R)-1-[(4-chlorophenyl)sulfonyl]piperidin-3-yl}-4-[6-(2,5-dimethoxyphenyl)imidazo[2,1-b][1,3]thiazol-5-yl]pyrimidin-2-amine]	69

Other lines, results leading:

inhibition at 10 µM [%]	Compound
42	CN(C)c1ccc(C(=O)N2CCC(Nc3nccc(-c4c(-c5ccc(F)c(F)c5)nc5sccn45)n3)CC2)cc1 [Example 221, 4-[6-(3,4-difluorophenyl)imidazo[2,1-b][1,3]thiazol-5-yl]-N-{1-[4-(dimethylamino)benzoyl]piper-idin-4-yl}pyrimidin-2-amine]
65	Fc1ccc(-c2nc3occn3c2-c2ccnc(NC3CCNCC3)n2)c(F)c1 [Example 300, 4-[6-(2,4-difluorophenyl)imidazo[2,1-b][1,3]oxazol-5-yl]-N-piperidin-4-ylpyrimidin-2-amine]
58	c1cc(-c2c(-c3ccc4c(c3)OCCO4)nc3sccn23)nc(NC2CCNCC2)n1 [Example 249, 4-[6-(2,3-dihydro-1,4-benzodioxin-6-yl)imidazo[2,1-b][1,3]thiazol-5-yl]-N-piperidin-4-ylpyrimidin-2-amine]
56	CCN(C)C(=O)N1CCC(Nc2nccc(-c3c(-c4ccc(F)cc4)nc4sccn34)n2)CC1 [Example 232, N-ethyl-4-({4-[6-(4-fluorophenyl)imidazo[2,1-b][1,3]thiazol-5-yl]pyrimidin-2-yl}amino)-N-methylpiperidine-1-carboxamide]

same assay, conditions: read-out: Mutant B-RAF % inhibition

Compound	inhibition at 10 µM [%]
O=C(NCC1CCCCC1)N1CCC[C@@H](Nc2nccc(-c3c(-c4ccc(F)cc4)nc4occn34)n2)C1 [Example 68, (3R)-N-(cyclohexylmethyl)-3-({4-[6-(4-fluorophenyl)imi-dazo[2,1-b][1,3]oxazol-5-yl]pyrimidin-2-yl}amino)piperidine-1-carboxamide]	42

same assay, conditions: read-out: Mutant B-RAF IC50

Compound	IC50 [µM]
O=S(=O)(c1ccc(Cl)cc1)N1CCC[C@@H](Nc2nccc(-c3c(-c4ccc(O)cc4)nc4sccn34)n2)C1 [Example 110, 4-{5-[2-({(3R)-1-[(4-chlorophenyl)sulfonyl]piperidin-3-yl}amino)pyrimidin-4-yl]imidazo[2,1-b][1,3]thiazol-6-yl}phenol]	> 5
O=S(=O)(c1ccc(Cl)cc1)N1CCC(Nc2nccc(-c3c(-c4ccc(F)cc4)nc4occn34)n2)CC1 [Example 199, N-{1-[(4-chlorophenyl)sulfonyl]piperidin-4-yl}-4-[6-(4-fluorophenyl)imidazo[2,1-b][1,3]oxazol-5-yl]pyrimidin-2-amine]	0.092
O=S(=O)(c1ccc(Cl)cc1)N1CCC[C@@H](Nc2nccc(-c3c(-c4cc(O)ccc4O)nc4sccn34)n2)C1 [Example 145, 2-{5-(2-({(3R)-1-[(4-chlorophenyl)sulfonyl]piperidin-3-yl}amino)pyrimidin-4-yl]imidazo[2,1-b][1,3]thiazol-6-yl}benzene-1,4-diol]	0.092
O=C(NC1CCCCC1)N1CCC(Nc2nccc(-c3c(-c4ccc(F)cc4)nc4occn34)n2)CC1 [Example 167, N-cyclohexyl-4-({4-[6-(4-fluorophenyl)imidazo[2,1-b][1,3]oxazol-5-yl]pyrimidin-2-yl}amino)piperidine-1-carboxamide]	4.71

Other lines, results leading:

IC50 [µM]	Compound
0.01	COC(=O)CCc1ccc(S(=O)(=O)N2CCC(Nc3nccc(-c4c(-c5cccc(O)c5)nc5sccn45)n3)CC2)cc1 [Example 272, methyl 3-(4-{[4-({4-[6-(3-hydroxyphenyl)imidazo[2,1-b][1,3]thiazol-5-yl]pyrimidin-2-yl}amino)piperidin-1-yl]sulfonyl}phenyl)propanoate]
0.546	CCNC(=O)Nc1cccc(-c2nc3sccn3c2-c2ccnc(N[C@@H]3CCCN(S(=O)(=O)c4ccc(Cl)cc4)C3)n2)c1 [Example 347, 1-(3-{5-[2-({(3R)-1-[(4-chlorophenyl)sulfonyl]piperidin-3-yl}amino)pyrimidin-4-yl]imidazo[2,1-b][1,3]thiazol-6-yl}phenyl)-3-ethyl urea]
1.44	O=C(Nc1ccc(O)cc1)N1CCC[C@@H](Nc2nccc(-c3c(-c4cccc(O)c4)nc4sccn34)n2)C1 [Example 343, (3R)-N-(4-hydroxyphenyl)-3-({4-[6-(3-hydroxyphenyl)imidazo[2,1-b][1,3]thiazol-5-yl]pyrimidin-2-yl}amino)piperidine-1-carboxamide]
4	COc1cccc(-c2nc3sccn3c2-c2ccnc(N[C@@H]3CCCN(S(=O)(=O)C4CC4)C3)n2)c1 [Example 325, N-[(3R)-1-(cyclopropylsulfonyl)piperidin-3-yl]-4-[6-(3-methoxyphenyl)imidazo[2,1-b][1,3]thiazol-5-yl]pyrimidin-2-amine]
0.001	CC(=O)Nc1ccc(S(=O)(=O)N2CCC[C@@H](Nc3nccc(-c4c(-c5cccc(O)c5)nc5sccn45)n3)C2)cc1 [Example 374, N-(4-{[(3R)-3-({4-[6-(3-hydroxyphenyl)imidazo[2,1-b][1,3]thiazol-5-yl]pyrimidin-2-yl}amino)piperidin-1-yl]sulfonyl}phenyl)acetamide]
> 3	O=S(=O)(Cc1ccccc1)N1CCC[C@@H](Nc2nccc(-c3c(-c4cccc(O)c4)nc4sccn34)n2)C1 [Example 369, 3-[5-(2-{[(3R)-1-(benzylsulfonyl)piperidin-3-yl]amino}pyrimidin-4-yl)imidazo[2,1-b][1,3]thiazol-6-yl]phenol]
> 3	COc1ccccc1-c1nc2sccn2c1-c1ccnc(NC2CCNCC2)n1 [Example 261, 4-[6-(2-methoxyphenyl)imidazo[2,1-b][1,3]thiazol-5-yl]-N-piperidin-4-ylpyrimidin-2-amine]
> 10	Cc1ccc(-c2nc3scc(C)n3c2-c2ccnc(NC3CCNCC3)n2)cc1 [Example 246, 4-[3-methyl-6-(4-methylphenyl)imidazo[2,1-b][1,3]thiazol-5-yl]-N-piperidin-4-ylpyrimidin-2-amine]
6.99	COc1cccc(-c2nc3occn3c2-c2ccnc(NC3CCN(S(=O)(=O)C4CC4)CC3)n2)c1 [Example 338, N-[1-(cyclopropylsulfonyl)piperidin-4-yl]-4-[6-(3-methoxyphenyl)imidazo[2,1-b][1,3]oxazol-5-yl]pyrimidin-2-amine]

same assay, conditions: read-out: Mutant B-RAF IC50 (uM) or % inhibition

IC50 [µM]	Compound
0.042	O=S(=O)(c1ccccc1)N1CCC[C@@H](Nc2nccc(-c3c(-c4cccc(O)c4)nc4occn34)n2)C1 [Example 398, 3-[5-(2-{[(3R)-1-(phenylsulfonyl)piperidin-3-yl]amino}pyrimidin-4-yl)imidazo[2,1-b][1,3]oxazol-6-yl]phenol]
